Where two headings read alike, the source gives them in different places.
How the values were obtained:
[1] = test system: HIV transcripts (TAR, LLTR, Pol, PolyA, TatRev); assay: Baseline HIV transcription without activation, PBMCs from ART-suppressed PWH, 24 hours; assay type: cell-based; conditions: no activation; for LLTR HIV transcripts (DMSO = 100) / Pol HIV transcripts (DMSO = 100) / PolyA HIV transcripts (DMSO = 100) / Tat-Rev HIV transcripts (DMSO = 100) / PolyA/LLTR ratio (DMSO = 1) / TatRev/PolyA ratio (DMSO = 1) / TAR HIV transcripts (DMSO = 100) / LLTR/TAR ratio (DMSO = 1): ruxolitinib 4μM, dinaciclib 8nM, AZD4573 8nM, KRIBB11 2.5μM; for LLTR HIV transcripts (DMSO = 100) / Pol HIV transcripts (DMSO = 100) / PolyA HIV transcripts (DMSO = 100) / Tat-Rev HIV transcripts (DMSO = 100) / TAR HIV transcripts (DMSO = 100): pladienolide B 10nM; for PolyA/LLTR ratio (DMSO = 1) / TatRev/PolyA ratio (DMSO = 1) / LLTR/TAR ratio (DMSO = 1): pladienolide B
Protocol: For a selection of the compounds, we evaluated the ability to reduce baseline HIV transcription without activation. PBMCs were cultured in the presence of individual drugs in DMSO or DMSO alone as a control and harvested after 24 hours. For each drug, we tested PBMCs from at least 3 PWH, as indicated in Supplemental Figure 5B. […] Likewise, pladienolide B appeared to reduce the level of multiply spliced transcripts (33%, Supplemental Figure 5, A and B).
PBMCs were isolated from fresh venous blood from 16 ART-suppressed HIV-infected study participants using Ficoll density gradient centrifugation. The cells were seeded at 6 × 10^6 cells/well and cultured with antiretrovirals (nevirapine and indinavir) to prevent new infection. On the next day, PBMCs were activated with anti-CD3/CD28–coated beads (Invitrogen) in the presence of 20 U/mL IL-2 and individual drugs in DMSO or DMSO alone as a control. Since we were limited in the PBMC yield per study participant, different study participants were used for different experiments (such as the initial screen, dose response, different time points, and studies in activated vs. unstimulated cells). In addition, the yields of PBMCs were sometimes insufficient to test all drugs for a given question or experiment.
Total cellular DNA and RNA were extracted in parallel using Trireagent (Molecular Research Center) according to the manufacturer’s instructions, except for study participants 2147 and 2461 (Figure 4), for whom DNA and RNA were extracted using the QIAGEN AllPrep DNA/RNA/miRNA Universal Kit with on-column DNase I treatment of the RNA and the manufacturer’s modification to enhance recovery of short transcripts. RNA and DNA concentrations were measured using UV spectrophotometry (NanoDrop One, Thermo Fisher Scientific). Total initiated HIV (TAR) transcripts were quantified by a 3-step polyadenylation RT-ddPCR as described previously ([8], [84]). HIV 5′ elongated (LLTR), midtranscribed (Pol), completed (PolyA), and multiply spliced (TatRev) transcripts were quantified by a 2-step RT-ddPCR as previously described ([8]). The levels of each HIV transcript were normalized to 1 μg of total cellular RNA and expressed as a percentage of the (activated) DMSO control. To quantify virion-associated RNA in supernatant, RNA was extracted from 400 μL supernatant using Trireagent-LS (Molecular Research Center) according to the manufacturer’s instructions. Levels of U3-polyadenylated HIV RNA were measured in the supernatant by RT-ddPCR, normalized to copies/mL, and expressed as a percentage of the activated DMSO. For measuring the HIV infection frequency at day 6, the HIV DNA U3-U5 LTR region was quantified by using ddPCR as described previously ([8]). HIV DNA copies were normalized to cell numbers according to the mass of DNA input per well (calculated from the DNA concentration and input volume) ([85]).
Figure S5. CDK-inhibitors appear to decrease baseline HIV splicing even in the absence of T cell activation. Each drug was tested in PBMCs from at least three ART-suppressed study participants and PBMCs were aliquoted into wells at 6x10^6 cells/well. The cells were cultured with antiretrovirals but without activation in the presence of individual drugs in (1 picture or pasted object on this page, not shown here)
DMSO or DMSO alone as control. After 24h, total RNA was extracted and the progression through different stages of HIV transcription was quantified by measuring the levels of initiated (TAR), 5’ elongated (LLTR), mid-transcribed/unspliced (Pol), completed (PolyA) and multiply spliced (TatRev) HIV transcripts. A-B) The levels of all HIV transcripts were quantified, normalized to 1 µg of total cellular RNA, and expressed as a percent of the DMSO control (% of DMSO). A) Medians are shown, as well as the values of the individual study participants in different colors. B) The medians from panel A) are presented. The effect of each drug on the different transcripts was studied in three to six study participants, as […]

[2] = test system: HIV transcripts (PolyA, TatRev); assay: Dose-response curves of LPAs: polyadenylated and multiply spliced HIV transcripts 24 hours after activation; assay type: cell-based; conditions: for IC50: Human immunodeficiency virus 1, PBMC, 24 h, PBMCs from 1 participant per drug; for MS Tat-Rev (dose-response) / PolyA (dose-response): 24 hours, 1 participant per drug
Protocol: The IC50 was determined based on the reduction in completed (PolyA) as well as multiply spliced (TatRev) HIV transcripts relative to activated DMSO (Table 1).
Figure 2 Dose-response curves of LPAs. Dose-response curves for each drug were generated in PBMCs from 1 ART-suppressed study participant per drug. PBMCs were aliquoted into wells at 6 × 10^6 cells/well, activated, and cultured with antiretrovirals in the presence of DMSO alone (no drug) or varying concentrations of individual drugs in DMSO. After 24 hours, the levels of polyadenylated and multiply spliced HIV transcripts were quantified by RT-ddPCR, normalized to 1 μg of total cellular RNA, and expressed as a percentage of the activated DMSO control (% of activated DMSO).

[3] = participant 5557 (DMSO cell empty)

CC(=O)N[C@@H]1CCC[C@H](C(=O)Nc2cc(-c3cnn4c3CC(C)(C)C4)c(Cl)cn2)C1 [AZD4573]
5′ elongated HIV transcripts without activation compared to DMSO ([1]; 24 hours): did not reduce | Completed HIV transcripts without activation compared to DMSO ([1]; 24 hours): did not reduce | Multiply spliced HIV transcripts without activation, median relative to DMSO ([1]; 24 hours, at least 3 PWH): 0% | HIV splicing (TatRev/PolyA) without activation ([1]; 24 hours, not statistically significant): severely reduce | LLTR HIV transcripts (DMSO = 100) ([1]; participant 156): 37.81 | Pol HIV transcripts (DMSO = 100) ([1]; participant 156): 28.11 | PolyA HIV transcripts (DMSO = 100) ([1]; participant 156): 93.77 | Tat-Rev HIV transcripts (DMSO = 100) ([1]; participant 156): 0 | PolyA/LLTR ratio (DMSO = 1) ([1]; participant 156): 2.48 | TatRev/PolyA ratio (DMSO = 1) ([1]; participant 156): 0 | LLTR HIV transcripts (DMSO = 100) ([1]; participant 163): 69.35 | Pol HIV transcripts (DMSO = 100) ([1]; participant 163): 112.58 | PolyA HIV transcripts (DMSO = 100) ([1]; participant 163): 122.94 | Tat-Rev HIV transcripts (DMSO = 100) ([1]; participant 163): 0 | PolyA/LLTR ratio (DMSO = 1) ([1]; participant 163): 1.773 | TatRev/PolyA ratio (DMSO = 1) ([1]; participant 163): 0 | LLTR HIV transcripts (DMSO = 100) ([1]; participant 1379): 41.73 | Pol HIV transcripts (DMSO = 100) ([1]; participant 1379): 110.74 | PolyA HIV transcripts (DMSO = 100) ([1]; participant 1379): 43.19 | TAR HIV transcripts (DMSO = 100) ([1]; participant 1379): 286.67 | LLTR/TAR ratio (DMSO = 1) ([1]; participant 1379): 0.1456 | PolyA/LLTR ratio (DMSO = 1) ([1]; participant 1379): 1.035 | LLTR HIV transcripts (DMSO = 100) ([1]; participant 2027): 76.52 | Pol HIV transcripts (DMSO = 100) ([1]; participant 2027): 30.35 | PolyA HIV transcripts (DMSO = 100) ([1]; participant 2027): 87.13 | TAR HIV transcripts (DMSO = 100) ([1]; participant 2027): 211.63 | LLTR/TAR ratio (DMSO = 1) ([1]; participant 2027): 0.3616 | PolyA/LLTR ratio (DMSO = 1) ([1]; participant 2027): 1.1386 | LLTR HIV transcripts (DMSO = 100) ([1]; participant 2750): 134.54 | Pol HIV transcripts (DMSO = 100) ([1]; participant 2750): 202.4 | PolyA HIV transcripts (DMSO = 100) ([1]; participant 2750): 70.63 | TAR HIV transcripts (DMSO = 100) ([1]; participant 2750): 206.7 | Tat-Rev HIV transcripts (DMSO = 100) ([1]; participant 2750): 0 | LLTR/TAR ratio (DMSO = 1) ([1]; participant 2750): 0.6509 | PolyA/LLTR ratio (DMSO = 1) ([1]; participant 2750): 0.525 | TatRev/PolyA ratio (DMSO = 1) ([1]; participant 2750): 0 | LLTR HIV transcripts (DMSO = 100) [1, 3]: 170.71 | Pol HIV transcripts (DMSO = 100) [1, 3]: 0 | TAR HIV transcripts (DMSO = 100) ([1]; participant 5557): 348.03 | LLTR/TAR ratio (DMSO = 1) ([1]; participant 5557): 0.57 | IC50 ([2]; reduction in PolyA HIV transcripts relative to activated DMSO, read-out: Completed (PolyA) IC50): 280 pM | IC50 ([2]; reduction in TatRev HIV transcripts relative to activated DMSO, read-out: Multiply spliced (TatRev) IC50): 230 pM | MS Tat-Rev (dose-response) ([2]; dose 1 nM): 18.92 % of activated DMSO | PolyA (dose-response) ([2]; dose 1 nM): 20.96 % of activated DMSO | MS Tat-Rev (dose-response) ([2]; dose 8 nM): 1.11 % of activated DMSO | PolyA (dose-response) ([2]; dose 8 nM): 5.23 % of activated DMSO | MS Tat-Rev (dose-response) ([2]; dose 20 nM): 0.18 % of activated DMSO | PolyA (dose-response) ([2]; dose 20 nM): 4.94 % of activated DMSO

— PMC11466185, “Mechanisms and efficacy of small molecule latency-promoting agents to inhibit HIV reactivation ex vivo” (JCI Insight, 2024)
